Laboratory results published in ChEMBL document CHEMBL1153338, “Semi-synthetic and synthetic 1,2,4-trioxaquines and 1,2,4-trioxolaquines: synthesis, preliminary SAR and comparison with acridine endoperoxide conjugates” (Bioorg Med Chem Lett, 2009).

Key:
[1] = system: Plasmodium falciparum; experiment: Antimalarial activity against chloroquine-resistant Plasmodium falciparum K1 infected type A+ human erythrocytes after 24 hrs by [G-3H]hypoxanthine uptake; format: functional, organism-based; settings: K1, 24 h
[2] = system: Plasmodium falciparum; experiment: Antimalarial activity against chloroquine-sensitive Plasmodium falciparum 3D7 infected type A+ human erythrocytes after 24 hrs by [G-3H]hypoxanthine uptake; format: functional, organism-based; settings: 3D7, 24 h

SMILES	IC50 [1] [nM]	IC50 [2] [nM]
O=C1CCC2(CC1)OOC1(O2)C2CC3CC(C2)CC1C3 (stereo not given)	3.02	3.1
C[C@H]1[C@@H](CCNCCCCCNc2ccnc3cc(Cl)ccc23)O[C@@H]2O[C@@]3(C)CC[C@H]4[C@H](C)CC[C@@H]1[C@@]24OO3	16.2	24.2
C[C@H]1[C@@H](CCNCCCCNc2ccnc3cc(Cl)ccc23)O[C@@H]2O[C@@]3(C)CC[C@H]4[C@H](C)CC[C@@H]1[C@@]24OO3	13.2	12.6
COc1ccc2nc3cc(Cl)ccc3c(N3CCN(C4CCC5(CC4)OOC4(O5)C5CC6CC(C5)CC4C6)CC3)c2c1 (stereo not given)	6.76	12.3
COc1ccc2nc3cc(Cl)ccc3c(NCCCNC3CCC4(CC3)OOC3(O4)C4CC5CC(C4)CC3C5)c2c1 (stereo not given)	11.1	12.5
Clc1ccc2c(NCCCNC3CCC4(CC3)OOC3(O4)C4CC5CC(C4)CC3C5)ccnc2c1 (stereo not given)	8.32	12.3
Clc1ccc2c(N3CCN(C4CCC5(CC4)OOC4(O5)C5CC6CC(C5)CC4C6)CC3)ccnc2c1 (stereo not given)	26.2	12.6
COc1ccc2nc3cc(Cl)ccc3c(NCCNC3CCC4(CC3)OOC3(O4)C4CC5CC(C4)CC3C5)c2c1 (stereo not given)	7.2	9.67
COc1ccc2nc3cc(Cl)ccc3c(NCCNCc3ccc(CO[C@H]4O[C@@H]5O[C@@]6(C)CC[C@H]7[C@H](C)CC[C@@H]([C@H]4C)[C@@]57OO6)cc3)c2c1	19.3	12.3
C[C@H]1[C@@H](CC(=O)NCCCNc2ccnc3cc(Cl)ccc23)O[C@@H]2O[C@@]3(C)CC[C@H]4[C@H](C)CC[C@@H]1[C@@]24OO3	8.22	9.34
COc1ccc2nc3cc(Cl)ccc3c(NCCCNCc3ccc(CO[C@H]4O[C@@H]5O[C@@]6(C)CC[C@H]7[C@H](C)CC[C@@H]([C@H]4C)[C@@]57OO6)cc3)c2c1	20.2	16.3
COc1ccc2nc3cc(Cl)ccc3c(NCCNCC[C@H]3O[C@@H]4O[C@@]5(C)CC[C@H]6[C@H](C)CC[C@@H]([C@H]3C)[C@@]46OO5)c2c1	14.3	12.5
C[C@H]1[C@@H](CCNCCNc2ccnc3cc(Cl)ccc23)O[C@@H]2O[C@@]3(C)CC[C@H]4[C@H](C)CC[C@@H]1[C@@]24OO3	8.7	5.4
C[C@H]1[C@@H](CCNCCCNc2ccnc3cc(Cl)ccc23)O[C@@H]2O[C@@]3(C)CC[C@H]4[C@H](C)CC[C@@H]1[C@@]24OO3	12.6	11.5
Clc1ccc2c(NCCNC3CCC4(CC3)OOC3(O4)C4CC5CC(C4)CC3C5)ccnc2c1 (stereo not given)	3.6	6.56
